# Experimental data taken from patent US12649751B2 (Arcus Biosciences, Inc., priority 2022, dated 2026).
# Molecular target: HPK1 (Homo sapiens, UniProt Q92918)
# Experiment: HPK1 Biochemical Assay (ADP-Glo luminescence; low ATP 10 μM or high ATP 200 μM)
# Settings: 2 nM HPK1, 10 μM ATP; read-out: Biochemical Potency (low ATP)
# HPK1, sequence (Q92918 whole entry, species assumed): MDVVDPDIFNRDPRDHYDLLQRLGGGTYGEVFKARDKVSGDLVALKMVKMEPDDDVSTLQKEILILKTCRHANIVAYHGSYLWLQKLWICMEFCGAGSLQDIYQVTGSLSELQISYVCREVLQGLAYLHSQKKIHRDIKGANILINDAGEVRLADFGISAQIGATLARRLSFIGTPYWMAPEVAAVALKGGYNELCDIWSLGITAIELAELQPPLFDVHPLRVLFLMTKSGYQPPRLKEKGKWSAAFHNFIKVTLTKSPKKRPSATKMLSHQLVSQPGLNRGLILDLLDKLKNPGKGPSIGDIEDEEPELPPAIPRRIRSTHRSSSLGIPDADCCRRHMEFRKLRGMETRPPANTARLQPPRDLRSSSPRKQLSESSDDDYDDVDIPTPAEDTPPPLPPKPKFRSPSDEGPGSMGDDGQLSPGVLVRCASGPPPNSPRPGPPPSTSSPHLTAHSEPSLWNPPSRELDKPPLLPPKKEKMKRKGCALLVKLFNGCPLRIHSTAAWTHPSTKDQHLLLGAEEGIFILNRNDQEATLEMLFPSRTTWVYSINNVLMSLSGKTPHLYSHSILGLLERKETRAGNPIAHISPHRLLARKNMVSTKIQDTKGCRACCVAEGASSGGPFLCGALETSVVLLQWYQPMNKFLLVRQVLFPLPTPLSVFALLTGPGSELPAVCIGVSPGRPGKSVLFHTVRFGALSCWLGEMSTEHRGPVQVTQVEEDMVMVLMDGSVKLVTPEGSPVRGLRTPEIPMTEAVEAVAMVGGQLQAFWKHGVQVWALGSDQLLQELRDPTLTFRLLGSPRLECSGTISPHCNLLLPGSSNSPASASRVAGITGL
row,Structure (SMILES),IC50 [nM]
1,"Cc1cc(Nc2cc3nc(-c4ccc(F)cc4)sc3cn2)nc(O[C@H]2CCNC2)c1 [Example 188, N-[2-(4-Fluorophenyl)-[1,3]thiazolo[5,4-c]pyridin-6-yl]-4-methyl-6-[(3S)-pyrrolidin-3-yloxy]pyridin-2-amine]",< 100
2,"Cc1cc(Nc2cc3nc(N4CCC(O)CC4)sc3cn2)nc(O[C@H]2CCNC2)c1 [Example 189, 1-(6-{[4-Methyl-6-((3S)-pyrrolidin-3-yloxy)pyridin-2-yl]amino}-[1,3]thiazolo[5,4-c]pyridin-2-yl)piperidin-4-ol]",< 100
3,"COC1CCN(c2nc3cc(Nc4cc(C)cc(O[C@H]5CCNC5)n4)ncc3s2)CC1 [Example 190, N-[2-(4-Methoxypiperidin-1-yl)-[1,3]thiazolo[5,4-c]pyridin-6-yl]-4-methyl-6-((3S)-pyrrolidin-3-yloxy)pyridin-2-amine]",< 100
4,"Cc1cc(Nc2cc3nc(N4CCOCC4)sc3cn2)nc(O[C@H]2CCNC2)c1 [Example 191, 4-Methyl-N-[2-(morpholin-4-yl)-[1,3]thiazolo[5,4-c]pyridin-6-yl]-6-((3S)-pyrrolidin-3-yloxy)pyridin-2-amine]",< 100
5,"Cc1cc(Nc2cc3nc(N4CCC[C@H](O)C4)sc3cn2)nc(O[C@H]2CCNC2)c1 [Example 192, (3S)-1-(6-{[4-Methyl-6-((3S)-pyrrolidin-3-yloxy)pyridin-2-yl]amino}-[1,3]thiazolo[5,4-c]pyridin-2-yl)piperidin-3-ol]",< 100
6,"Cc1cc(Nc2cc3nc(N4CCC[C@@H](O)C4)sc3cn2)nc(O[C@H]2CCNC2)c1 [Example 193, (3R)-1-(6-{[4-Methyl-6-((3S)-pyrrolidin-3-yloxy)pyridin-2-yl]amino}-[1,3]thiazolo[5,4-c]pyridin-2-yl)piperidin-3-ol]",< 100
7,"Cc1ccn(-c2nc3cc(Nc4ccc(N5CCOCC5)c(CN5CCCC5)n4)ncc3s2)n1 [Example 195, N-[2-(3-Methyl-1H-pyrazol-1-yl)-[1,3]thiazolo[5,4-c]pyridin-6-yl]-5-(morpholin-4-yl)-6-[(pyrrolidin-1-yl)methyl]pyridin-2-amine]",< 100
8,"Cc1cc(C)n(-c2nc3cc(Nc4ccc(N5CCOCC5)c(CN5CCCC5)n4)ncc3s2)n1 [Example 196, N-[2-(3,5-Dimethyl-1H-pyrazol-1-yl)-[1,3]thiazolo[5,4-c]pyridin-6-yl]-5-(morpholin-4-yl)-6-[(pyrrolidin-1-yl)methyl]pyridin-2-amine]",< 100
9,"Cc1ccc(Nc2cc3nc(-n4nccc4C)sc3cn2)nc1CN[C@@H]1CCOC1 [Example 199, 5-Methyl-N-[2-(5-methyl-1H-pyrazol-1-yl)-[1,3]thiazolo[5,4-c]pyridin-6-yl]-6-({[(3R)-oxolan-3-yl]amino}methyl)pyridin-2-amine]",< 100
10,"Cc1ccc(Nc2cc3nc(-n4nccc4C)sc3cn2)nc1N1C[C@@H](N)C[C@H]1CO [Example 201, [(2S,4S)-4-Amino-1-(3-methyl-6-{[2-(5-methyl-1H-pyrazol-1-yl)-[1,3]thiazolo[5,4-c]pyridin-6-yl]amino}pyridin-2-yl)pyrrolidin-2-yl]methanol]",< 100
11,"Cc1ccc(Nc2cc3nc(-n4nccc4C)sc3cn2)nc1N1CC[C@H](O)C1 [Example 202, (3S)-1-(3-Methyl-6-{[2-(5-methyl-1H-pyrazol-1-yl)-[1,3]thiazolo[5,4-c]pyridin-6-yl]amino}pyridin-2-yl)pyrrolidin-3-ol]",100 to 1000
12,"Cc1ccc(Nc2cc3nc(-n4nccc4C)sc3cn2)nc1N1CCN(CCO)CC1 [Example 203, 2-[4-(3-Methyl-6-{[2-(5-methyl-1H-pyrazol-1-yl)-[1,3]thiazolo[5,4-c]pyridin-6-yl]amino}pyridin-2-yl)piperazin-1-yl]ethan-1-ol]",100 to 1000
13,"Cc1ccc(Nc2cc3nc(-n4nccc4C)sc3cn2)nc1N1CCNCC1 [Example 204, 5-Methyl-N-[2-(5-methyl-1H-pyrazol-1-yl)-[1,3]thiazolo[5,4-c]pyridin-6-yl]-6-(piperazin-1-yl)pyridin-2-amine]",< 100
14,"C[C@@H]1CCC(=O)N1c1nc2cc(Nc3ccc(C4CCOCC4)c(CN4CCCC4)n3)ncc2s1 [Example 207, (5R)-5-Methyl-1-(6-{[5-(oxan-4-yl)-6-[(pyrrolidin-1-yl)methyl]pyridin-2-yl]amino}-[1,3]thiazolo[5,4-c]pyridin-2-yl)pyrrolidin-2-one]",100 to 1000
15,"C[C@H]1CCC(=O)N1c1nc2cc(Nc3ccc(C4CCOCC4)c(CN4CCCC4)n3)ncc2s1 [Example 208, (5S)-5-Methyl-1-(6-{[5-(oxan-4-yl)-6-[(pyrrolidin-1-yl)methyl]pyridin-2-yl]amino}-[1,3]thiazolo[5,4-c]pyridin-2-yl)pyrrolidin-2-one]",< 100
16,c1cc(C2CCOCC2)c(CN2CCCC2)nc1Nc1cc2nc(N3C[C@@H]4C[C@H]3CO4)sc2cn1 [Example 211],100 to 1000
17,"Cc1cccnc1-c1nc2cc(Nc3ccc(C4CCOCC4)c(CN4CC[C@@H](F)C4)n3)ncc2s1 [Example 213, 6-{[(3R)-3-Fluoropyrrolidin-1-yl]methyl}-N-[2-(3-methylpyridin-2-yl)-[1,3]thiazolo[5,4-c]pyridin-6-yl]-5-(oxan-4-yl)pyridin-2-amine]",< 100

row,Structure (SMILES),IC50 [nM]
1,"Cc1cccnc1-c1nc2cc(Nc3ccc(C4CCOCC4)c(CN[C@@H]4CCOC4)n3)ncc2s1 [Example 215, N-[2-(3-Methylpyridin-2-yl)-[1,3]thiazolo[5,4-c]pyridin-6-yl]-5-(oxan-4-yl)-6-({[(3R)-oxolan-3-yl]amino}methyl)pyridin-2-amine]",< 100
2,"FC1(F)CCN(Cc2nc(Nc3cc4nc(-c5ccncc5)sc4cn3)ccc2C2CCOCC2)C1 [Example 218, 6-[(3,3-Difluoropyrrolidin-1-yl)methyl]-5-(oxan-4-yl)-N-[2-(pyridin-4-yl)-[1,3]thiazolo[5,4-c]pyridin-6-yl]pyridin-2-amine]",< 100
3,"c1cc(-c2nc3cc(Nc4ccc(C5CCOCC5)c(CN5CCOCC5)n4)ncc3s2)ccn1 [Example 219, 6-[(Morpholin-4-yl)methyl]-5-(oxan-4-yl)-N-[2-(pyridin-4-yl)-[1,3]thiazolo[5,4-c]pyridin-6-yl]pyridin-2-amine]",< 100
4,"Cc1ccc(-c2nc3cc(Nc4ccc(C5CCOCC5)c(CN5CCCC5)n4)ncc3s2)cn1 [Example 222, N-[2-(6-Methylpyridin-3-yl)-[1,3]thiazolo[5,4-c]291yridine-6-yl]-5-(oxan-4-yl)-6-[(291yridine291ne-1-yl)methyl]291yridine-2-amine]",< 100
5,Fc1ccc(-c2nc3cc(Nc4ccc(C5CCOCC5)c(CN5CCCC5)n4)ncc3s2)cc1 [Example 223],< 100
6,"Cc1cccnc1-c1nc2cc(Nc3ccc(C(C)C)c(CN4CCCC4)n3)ncc2s1 [Example 226, N-[2-(3-Methylpyridin-2-yl)-[1,3]thiazolo[5,4-c]pyridin-6-yl]-5-(propan-2-yl)-6-[(pyrrolidin-1-yl)methyl]pyridin-2-amine]",< 100
7,"CC(C)c1ccc(Nc2cc3nc(-n4cccn4)sc3cn2)nc1CN1CCCC1 [Example 228, 5-(Propan-2-yl)-N-[2-(1H-pyrazol-1-yl)-[1,3]thiazolo[5,4-c]pyridin-6-yl]-6-[(pyrrolidin-1-yl)methyl]pyridin-2-amine]",< 100
8,"C[C@@H]1CCCN1c1nc2cc(Nc3ccc(C4CCOCC4)c(CN4CCCC4)n3)ncc2s1 [Example 229, N-{2-[(2R)-2-Methylpyrrolidin-1-yl]-[1,3]thiazolo[5,4-c]pyridin-6-yl}-5-(oxan-4-yl)-6-[(pyrrolidin-1-yl)methyl]pyridin-2-amine]",100 to 1000
9,"C[C@H]1CCCN1c1nc2cc(Nc3ccc(C4CCOCC4)c(CN4CCCC4)n3)ncc2s1 [Example 230, N-{2-[(2S)-2-Methylpyrrolidin-1-yl]-[1,3]thiazolo[5,4-c]pyridin-6-yl}-5-(oxan-4-yl)-6-[(pyrrolidin-1-yl)methyl]pyridin-2-amine]",< 100
10,"c1cc(C2CCOCC2)c(CN2CCCC2)nc1Nc1cc2nc(N3CCCC3)sc2cn1 [Example 231, 5-(Oxan-4-yl)-N-[2-(pyrrolidin-1-yl)-[1,3]thiazolo[5,4-c]pyridin-6-yl]-6-[(pyrrolidin-1-yl)methyl]pyridin-2-amine]",100 to 1000
11,"c1cc(C2CCOCC2)c(CN2CCCC2)nc1Nc1cc2nc(N3CCCCC3)sc2cn1 [Example 232, 5-(Oxan-4-yl)-N-[2-(piperidin-1-yl)-[1,3]thiazolo[5,4-c]pyridin-6-yl]-6-[(pyrrolidin-1-yl)methyl]pyridin-2-amine]",< 100
12,"O[C@H]1CCN(c2nc3cc(Nc4ccc(C5CCOCC5)c(CN5CCCC5)n4)ncc3s2)C1 [Example 233, (3S)-1-(6-{[5-(Oxan-4-yl)-6-[(pyrrolidin-1-yl)methyl]pyridin-2-yl]amino}-[1,3]thiazolo[5,4-c]pyridin-2-yl)pyrrolidin-3-ol]",100 to 1000
13,"O[C@@H]1CCN(c2nc3cc(Nc4ccc(C5CCOCC5)c(CN5CCCC5)n4)ncc3s2)C1 [Example 234, (3R)-1-(6-{[5-(Oxan-4-yl)-6-[(pyrrolidin-1-yl)methyl]pyridin-2-yl]amino}-[1,3]thiazolo[5,4-c]pyridin-2-yl)pyrrolidin-3-ol]",100 to 1000
14,"C[C@H]1CCCCN1c1nc2cc(Nc3ccc(C4CCOCC4)c(CN4CCCC4)n3)ncc2s1 [Example 236, N-{2-[(2S)-2-Methylpiperidin-1-yl]-[1,3]thiazolo[5,4-c]pyridin-6-yl}-5-(oxan-4-yl)-6-[(pyrrolidin-1-yl)methyl]pyridin-2-amine]",< 100
15,"c1cc(C2CCOCC2)c(CN2CCCC2)nc1Nc1cc2nc(N3C4COCC3C4)sc2cn1 [Example 237, N-(2-{3-Oxa-6-azabicyclo[3.1.1]heptan-6-yl}-[1,3]thiazolo[5,4-c]pyridin-6-yl)-5-(oxan-4-yl)-6-[(pyrrolidin-1-yl)methyl]pyridin-2-amine]",< 100
16,"c1cc(C2CCOCC2)c(CN2CCCC2)nc1Nc1cc2nc(N3C[C@H]4C[C@@H]3CO4)sc2cn1 [Example 238, N-{2-[(1R,4R)-2-Oxa-5-azabicyclo[2.2.1]heptan-5-yl]-[1,3]thiazolo[5,4-c]pyridin-6-yl}-5-(oxan-4-yl)-6-[(pyrrolidin-1-yl)methyl]pyridin-2-amine]",100 to 1000
